Measurements taken from paper PMC6030077, “Dual role of HDAC10 in lysosomal exocytosis and DNA repair promotes neuroblastoma chemoresistance” (Scientific Reports, 2018).
“Also recorded” adds a separate entry of the source. Each block holds one compound with its values, some of them ahead of it.

Assays:
[1] = tested on: BE(2)-C cells; experiment: Flow cytometric analysis of LysoTracker DND-99 staining (lysosomal accumulation); format: cell-based, human; conditions: for lysosomal accumulation (LysoTracker staining): 24 h, bufexamac 30 µM, tubastatin A 7.5 µM, tubacin 7.5 µM, VPA 1 mM, vacuolin-1 10 µM
Procedure: Six days after siRNA transfection or 24 h after treatment with HDAC or lysosomal inhibitors, cells were stained for 1 h with 50 nM LysoTracker® Red DND-99 in medium under standard cell culture conditions. Cells were washed with ice-cold RPMI w/o phenol-red and detached using Trypsin/EDTA for 3 minutes at 37 °C. Cells were centrifuged, resuspended in RPMI w/o phenol red and LysoTracker® Red fluorescence was quantified on a BD FACSCanto II platform using the PE filter setting.

[2] = tested on: HDACs 1–3; experiment: Western blot analysis of histone H3 acetylation; format: cell-based, human; conditions: 1 mM, 6 h
Procedure: Western blot analysis was performed as previously described. […] (b) Western blot analysis of histone H3 […] class IIb HDAC inhibitor tubastatin A, respectively. Numbers below blot indicate histone H3 acetylation normalized to total histone H3 expression and relative to DMSO treated control. Bands of indicated proteins were developed on the same blot. (c) Flow cytometric analysis of LysoTracker DND-99 staining in BE(2)-C cells 24h after treatment with class I HDAC inhibitor VPA and class IIb HDAC inhibitor tubastatin A. Statistical analyses were performed on non-normalized data using paired, two-tailed t-test (***p < 0.001; **0.001 ≤ p < 0.01; *0.01 ≤ p < 0.05). Error bars represent SEM. 3 (1 picture or pasted object on this page, not shown here)

[3] = tested on: BE(2)-C cells; experiment: Flow cytometric quantification of intracellular doxorubicin accumulation, BE(2)-C; format: cell-based, human; conditions: for intracellular doxorubicin after co-treatment: 48 h, bufexamac 30 µM, tubastatin A 7.5 µM, tubacin 7.5 µM
Procedure: (§1) For flow cytometric quantification of intracellular doxorubicin after HDAC6/10 inhibition, BE(2)-C, SK-N-AS, IMR-32, HAP1 wild type and HDAC10 knockout cells were seeded in 6-well dishes at a density of 1.5 ∗ 10^5 cells/well (BE(2)-C and SK-N-AS, HAP1) and 3 ∗ 10^5 cells/well (IMR-32). Cells were treated with 25 ng/ml, 50 ng/ml, 100 ng/ml or 1 µg/ml doxorubicin, respectively, for 3–48 h (see respective figure legend). Where indicated, cells were co-treated with HDAC6/10 or lysosomal inhibitors. In case of co-treatment with vacuolin-1, vacuolin-1 was directly added to cells under doxorubicin treatment 1 h or 24 h prior to analysis. Flow cytometric quantification of intracellular doxorubicin after HDAC6, HDAC10 or P-glycoprotein knockdown in BE(2)-C cells was performed 5 days (P-glycoprotein) or 6 days (HDAC6/10) after transfection with siRNA. To that end, cells were seeded 3–4 days after transfection into 6-well dishes at 1.5 ∗ 10^5 cells per well and treated with 100 ng/ml doxorubicin +/− HDAC6/10 and lysosomal inhibitors for the last 24 h. After doxorubicin treatment, BE(2)-C, SK-N-AS, IMR-32 and HAP1 cells were washed with ice-cold RPMI w/o phenol-red and detached using Trypsin/EDTA for 3 minutes at 37 °C. Cells were centrifuged, resuspended in RPMI w/o phenol red and doxorubicin fluorescence was quantified on a BD FACSCanto II platform using the PE filter setting.

[4] = tested on: BE(2)-C cells; experiment: Pulse-chase analysis of doxorubicin secretion/retention; format: cell-based, human; conditions: 12 h pre-treatment, 1 µg/ml doxorubicin 3 h, washout, relative to t0
Procedure: To test whether HDAC10 inhibition prolonged the retention of doxorubicin, we used a pulse-chase approach in which BE(2)-C cells were pre-treated over night with HDAC6/10 inhibitors and then loaded with high concentrations of doxorubicin for 3 h (1 µg/ml). After doxorubicin washout, HDAC6/10 or HDAC6 inhibitors were re-added (t0), and intracellular doxorubicin fluorescence was measured at t0, as well as 3 h (t3h) and 6 h (t6h) after doxorubicin removal (Fig. 5h–k). […] In summary, secretion of doxorubicin was slowed down in case of HDAC6/10 inhibition but not by specific HDAC6 inhibition alone.
as §1

[5] = tested on: BE(2)-C cells; experiment: Flow cytometric analysis of cell surface LAMP-1 (lysosomal exocytosis); format: cell-based, human; conditions: 6 h tubastatin A 7.5 µM, bufexamac 30 µM, tubacin 7.5 µM, vacuolin-1 10 µM 1 h
Procedure: (§2) Cells were dissociated from dishes using non-enzymatic cell dissociation reagent for five minutes. Cells were counted using a ViCell XR automatic cell counter (Beckmann Coulter) and 2.5 ∗ 10^5 cells were transferred into a pre-cooled 96-well round bottom plate (TPP92097). Cells were stained for 1.5–2 hours on ice with primary anti P-gp (Biozol ABA-AB00143-1.1), LAMP-1 (H4A3, DHSB) antibody or isotype control (DLN-05794, Dianova, Barcelona, Spain) and for 1 hour with APC-labeled secondary antibody (Dianova 115-136-068). Cells were washed three times in FACS buffer (5% FBS in PBS) after each antibody incubation step. For evaluation of DNA double-strand breaks, cells were detached from dishes using trypsin, counted using a ViCell XR automatic cell counter (Beckmann Coulter) and transferred into a pre-cooled 96-well round bottom plate (4 ∗ 10^6 cells/well). Cells were fixed and permeabilized using the eBioscience^TM Foxp3/Transcription Factor Staining Buffer Set (Thermo Fisher Scientific). Cells were stained for 1.5 h with Phospho-Histone H2A.X (S139) primary antibody (CST #9718) and for 1 h in Alexa-488-labeled secondary antibody (ThermoFisher A-11008). Cells were washed three times in 1× permeabilization buffer after each antibody incubation step and fluorescence was quantified on a BD FACSCanto II platform.

[6] = tested on: HDAC6; experiment: Western blot analysis of tubulin K40 acetylation as a marker for HDAC6 inhibition; format: cell-based, human; conditions: 24 h; bufexamac 30 µM, tubastatin A 7.5 µM, tubacin 7.5 µM
Procedure: Western blot analysis was performed as previously described. The following antibodies were used: anti-HDAC6 (sc-11420, Santa Cruz), anti-HDAC10 (H3413, Sigma), anti-acetylated histone H3 (06-911, Merck Millipore), anti-histone H3 (9715, Cell Signaling Technology, Cambridge UK), anti-LAMP-1 (H4A3, DHSB, Iowa City, IA, USA), anti-LAMP-2 (H4B4; Santa Cruz Biotechnology), anti-acetylated tubulin (6–11B-1; Sigma), anti-tubulin (2148, Cell Signaling Technology), anti P-glycoprotein (13978 S, Cell Signaling Technology) and anti-β-actin (clone AC-15; Sigma).

[7] = tested on: BE(2)-C cells; experiment: Alkaline single cell gel electrophoresis assay (comet assay); format: cell-based, human; conditions: 18 h, tubastatin A 7.5 µM or doxorubicin 100 ng/ml
Procedure: BE(2)-C cells were treated with the HDAC6/10 inhibitor tubastatin A alone or in combination with the genotoxic drug doxorubicin (100 ng/ml doxorubicin, 7.5 µM tubastatin) for 18 h. Untreated cell aliquots and cells irradiated with 5 Gy (^137Cs radiation source, dose rate of 1 Gy min^−1) were used as negative and positive controls, respectively. Cells were subsequently analyzed by the alkaline comet assay as previously described[68],[69] with some modifications. In brief, the cells were mixed with 0.7% low-melting temperature agarose (Biozym), plated on two-well slides (Trevigen), and subsequently lysed overnight. Single cell electrophoresis was performed at 4 °C. Analysis of DNA damage was accomplished by fluorescence microscopy using a fully automated cell scanning system Metafer-4 (Metasystems) as described in[70]. DNA damage was assessed as “Tail DNA in %”. Statistical evaluation of two differently treated cell aliquots was performed with the Mann Whitney test using GraphPad Prism version 5.04 for Windows.

[8] = tested on: BE(2)-C cells; experiment: Cell viability, automated trypan blue exclusion, BE(2)-C; format: cell-based, human; conditions: 100 ng/ml doxorubicin; for viability of BE(2)-C cells, single treatment: 7.5 µM tubastatin A or vacuolin-1 alone; for viability of BE(2)-C cells, combination with doxorubicin, 24 h, compared to doxorubicin alone: 10 µM verapamil or vacuolin-1
Procedure: Adherent cell lines were trypsinized and cells were pooled with corresponding supernatant, centrifuged and resuspended in 1.5 ml cell culture media. Cell viability was measured by automated trypan blue staining with the Vi-Cell XR Cell Viability Analyzer from Beckman Coulter (Krefeld, Germany).

[9] = tested on: proliferating human fibroblasts; experiment: Flow cytometric analysis of cellular doxorubicin fluorescence, fibroblasts; format: cell-based; conditions: 100 ng/ml doxorubicin 48 h; tubastatin A 7.5 µM, vacuolin-1 10 µM, verapamil 10 µM
[10] = tested on: BE(2)-C cells; experiment: Flow cytometric analysis of γH2A.X staining (DNA double-strand breaks); format: cell-based, human; conditions: 24 h, tubastatin A 7.5 µM, vacuolin-1 10 µM; for DSBs (γH2A.X), treatment alone in the absence of doxorubicin: verapamil 10 µM
Procedure: as §2, with “Cells were stained for 1.5–2 hours on ice with primary anti P-gp (Biozol ABA-AB00143-1.1), LAMP-1 (H4A3, DHSB) antibody or isotype control (DLN-05794, Dianova, Barcelona, Spain) and for 1 hour with APC-labeled secondary antibody (Dianova 115-136-068).” left out, “Cells were stained for 1.5 h with Phospho-Histone H2A.X (S139) primary antibody (CST #9718) and for 1 h in Alexa-488-labeled secondary antibody (ThermoFisher A-11008).” left out

[11] = tested on: P-glycoprotein; experiment: Flow cytometric quantification of cell surface P-gp expression; format: cell-based, human; conditions: BE(2)-C; 6 h tubastatin A 7.5 µM; vacuolin-1 10 µM 1 h
Procedure: as §2

Compound: CCCC(CCC)C(=O)O [VPA, valproic acid]
lysosomal accumulation (LysoTracker staining) [1]: did not induce lysosomal accumulation
inhibition of HDACs 1–3 (histone H3 acetylation) [2]: substantially inhibiting HDACs 1–3

EC50 ([1]; Homo sapiens, 24 h treatment, read-out: LysoTracker staining (lysosomal accumulation) EC50): 183 nM
Compound: CN(C)Cc1c(C(=O)NCCOc2ccc(C(=O)NO)cc2)oc2ccccc12 [abexinostat]
concentrations at which lysosomal accumulation is induced ([1]; 24 h treatment): ≥ 100 nM
concentrations at which intracellular doxorubicin amounts are increased ([3]; 100 ng/ml doxorubicin, 24 h co-treatment): greater than or equal to 500 nM

Compound: CCCCOc1ccc(CC(=O)NO)cc1 [bufexamac]
lysosomal accumulation (LysoTracker staining) [1]: caused lysosomal accumulation
retention of intracellular doxorubicin 3 h and 6 h after doxorubicin removal [4]: retained higher levels of intracellular doxorubicin
cell surface LAMP-1 levels [5]: reduced surface LAMP-1 levels
intracellular doxorubicin after co-treatment ([3]; 100 ng/ml doxorubicin): increased intracellular doxorubicin
intracellular doxorubicin levels, short-term ([3]; 12 h pre-treatment with inhibitor, then 1 µg/ml doxorubicin for 3 h): increased intracellular doxorubicin levels
HDAC6 inhibition (tubulin K40 acetylation) [6]: substantially inhibited HDAC6; also recorded: lowest potency against HDAC6

Compound: COc1cccc2c1C(=O)c1c(O)c3c(c(O)c1C2=O)C[C@@](O)(C(=O)CO)C[C@@H]3O[C@H]1C[C@H](N)[C@H](O)[C@H](C)O1 [doxorubicin]
DSBs in comet assays, single treatment [7]: increased DSBs only trend-wise
viability of BE(2)-C cells, single treatment [8]: did not substantially reduce cell viability

Compound: O=C(CCCCCCC(=O)Nc1ccc([C@H]2O[C@@H](CSc3nc(-c4ccccc4)c(-c4ccccc4)o3)C[C@@H](c3ccc(CO)cc3)O2)cc1)NO [tubacin]
lysosomal accumulation (LysoTracker staining) [1]: did not
retention of intracellular doxorubicin 3 h and 6 h after doxorubicin removal [4]: had no effect
intracellular doxorubicin after co-treatment ([3]; 100 ng/ml doxorubicin): did not alter cellular doxorubicin content
HDAC6 inhibition (tubulin K40 acetylation) [6]: substantially inhibited HDAC6

Compound: Ic1cccc(/C=N/Nc2nc(N3CCOCC3)nc(N(c3ccccc3)c3ccccc3)n2)c1 [vacuolin-1]
intracellular doxorubicin in fibroblasts [9]: did not exhibit strongly increased intracellular doxorubicin
lysosomal accumulation (LysoTracker staining) [1]: increased LysoTracker staining
DSBs (γH2A.X), co-treatment with doxorubicin compared to doxorubicin alone ([10]; 100 ng/ml doxorubicin): increased doxorubicin induced DSBs
DSBs (γH2A.X), treatment alone in the absence of doxorubicin [10]: did not induce DSBs on its own
retention of intracellular doxorubicin 3 h and 6 h after doxorubicin removal [4]: retained higher levels of intracellular doxorubicin
cell surface LAMP-1 levels [5]: robustly reduced surface LAMP-1
doxorubicin accumulation with lysosomal exocytosis inhibitor ([3]; 100 ng/ml doxorubicin 48 h, 10 µM vacuolin-1): promoted doxorubicin accumulation
viability of BE(2)-C cells, single treatment [8]: no substantial effect
viability of BE(2)-C cells, combination with doxorubicin, 24 h, compared to doxorubicin alone [8]: strongly reduced cell viability
cell surface P-gp levels [11]: slightly increased surface P-gp levels

Compound: COc1ccc(CCN(C)CCCC(C#N)(c2ccc(OC)c(OC)c2)C(C)C)cc1OC (centres unmarked) [verapamil]
intracellular doxorubicin in fibroblasts [9]: strongly increase doxorubicin accumulation
DSBs (γH2A.X), treatment alone in the absence of doxorubicin [10]: did not induce DSBs
basal levels of doxorubicin in cells ([3]; 100 ng/ml doxorubicin 24 h, 10 µM verapamil): increased the basal levels of doxorubicin
viability of BE(2)-C cells, combination with doxorubicin, 48 h, compared to doxorubicin alone ([8]; 10 µM verapamil): not significant
viability of BE(2)-C cells, combination with doxorubicin, 24 h, compared to doxorubicin alone [8]: only slightly reduced cell viability
